Our source for the Dmax and DC50 values is patent US12257247B2 (Monte Rosa Therapeutics AG, priority 2023, dated 2025).

As usually defined, the Dmax is the greatest extent of degradation seen. In general, DC50 refers to the concentration at which degradation of the target reaches its halfway point.

The structures appear in SMILES notation. Where two headings read alike, the source gives them in different places. A value given as a limit tells only on which side of the number the result lay.

This experiment deals with T1, VAV1 (Homo sapiens, UniProt P15498+Q96SW2).
T1 construct: A heterozygous VAV1 C-terminal HiBiT knock-in pool was generated at Monte Rosa Therapeutics from a clonal Jurkat cell; endogenous in cells; host or cells: Jurkat clone stably expressing LgBiT, homozygous GSPT1-G575N; heterozygous VAV1-HiBiT knock-in pool
Description: VAV1 degradation activity, VAV1-HiBiT knock-in Jurkat luminescence assay (Example A, Table 1). The conditions noted are these: VAV1-HiBiT knock-in Jurkat cells, luminescence read at 6 and 24 hours; for Dmax: Jurkat. It is filed as cell-based. The method, boiled down: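 Jurkat cells carrying VAV1-HiBiT knock-in, plated in RPMI/10% FBS with Endurazine live-cell substrate and pre-incubated ~16 h at 37° C. Compound dosed from 10 μM stock; luminescence read 6 and 24 h later. Response normalised to plate negative/positive controls, EC50 from 3-parameter logistic fit (hillslope 1).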
For orientation: The HiBiT peptide binds its large partner to form an active luciferase.

[1] abbreviates: read-out: VAV1 DC50 (nM), class.

As for `CN1CC(=O)N(c2ccc(-c3cccc(C4CCC(=O)NC4=O)c3Cl)cc2)c2cccnc21` (stereo not drawn) [Compound 335], the Dmax reads like this: (read-out: VAV1 Dmax %) 97.3%; (read-out: VAV1 Dmax %, class) above 90%. The DC50 is, setting by setting: (read-out: VAV1 DC50) 5.87 nM; under setting [1], at most 100 nM.

As for `O=C1CCC(c2cccc(-c3ccc(N4CCOCC4=O)cc3)c2Cl)C(=O)N1` (stereo not drawn) [Compound 336], the Dmax (read-out: VAV1 Dmax %) amounted to 93.5% and the Dmax (read-out: VAV1 Dmax %, class) is above 90%. The DC50 is 17.4 nM (read-out: VAV1 DC50) and at most 100 nM under setting [1].

Regarding `O=C1CCC(c2cccc(-c3ccc(C4(N5CCCCC5=O)CC4)cc3)c2Cl)C(=O)N1` (stereo not drawn) [Compound 337, 3-[2-chloro-3-[4-[1-(2-oxo-1-piperidyl)cyclopropyl]phenyl]phenyl]piperidine-2,6-dione], the Dmax runs as follows: (read-out: VAV1 Dmax %) 40%; (read-out: VAV1 Dmax %, class) below 60%. Moreover, the DC50 (read-out: VAV1 DC50) turned out to be 5770 nM and the DC50 under setting [1] was above 1000 nM.

Regarding `O=C1CCC(c2cccc(-c3ccc(N4CCOCC4)cc3)c2Cl)C(=O)N1` (stereo not drawn) [Compound 338, 3-(2-chloro-4′-morpholino-[1,1′-biphenyl]-3-yl)piperidine-2,6-dione], the Dmax runs as follows: (read-out: VAV1 Dmax %) 57.8%; (read-out: VAV1 Dmax %, class) below 60%. For the same molecule, the DC50 was 2170 nM (read-out: VAV1 DC50) and above 1000 nM under setting [1].

For the molecule `O=C1CCC(c2cccc(-c3ccc(N4C(=O)CCCC45CCC5)cc3)c2Cl)C(=O)N1` (stereo not drawn) [Compound 339, 3-(2-chloro-4′-(6-oxo-5-azaspiro[3.5]nonan-5-yl)-[1,1′-biphenyl]-3-yl)piperidine-2,6-dione], the Dmax (read-out: VAV1 Dmax %) stood at 98.2% and the Dmax (read-out: VAV1 Dmax %, class) was above 90%. For the same molecule, the DC50 (read-out: VAV1 DC50) came to 1.96 nM and the DC50 under setting [1] was at most 100 nM.

`O=C1CCC(c2cccc(-c3ccc(Cc4nccc(C5COC5)n4)cc3)c2Cl)C(=O)N1` (stereo not drawn) [Compound 340, 3-(2-chloro-4′-((4-(oxetan-3-yl)pyrimidin-2-yl)methyl)-[1,1′-biphenyl]-3-yl)piperidine-2,6-dione]: the Dmax by setting is: (read-out: VAV1 Dmax %) 96.6%; (read-out: VAV1 Dmax %, class) above 90%. For the same molecule, the DC50 by setting is: (read-out: VAV1 DC50) 5.86 nM; under setting [1], at most 100 nM.

As for `CN1CC2(CCC2)N(c2ccc(-c3cccc(C4CCC(=O)NC4=O)c3Cl)cc2)C1=O` (stereo not drawn) [Compound 341, 3-(2-chloro-4′-(7-methyl-6-oxo-5,7-diazaspiro[3.4]octan-5-yl)-[1,1′-biphenyl]-3-yl)piperidine-2,6-dione], the Dmax is, setting by setting: (read-out: VAV1 Dmax %) 98.2%; (read-out: VAV1 Dmax %, class) above 90%. The DC50 (read-out: VAV1 DC50) amounted to 2.46 nM and the DC50 under setting [1] was at most 100 nM.

For `CN1CC2(CC2)N(c2ccc(-c3cccc(C4CCC(=O)NC4=O)c3Cl)cc2)C1=O` (stereo not drawn) [Compound 342, 3-(2-chloro-4′-(6-methyl-5-oxo-4,6-diazaspiro[2.4]heptan-4-yl)-[1,1′-biphenyl]-3-yl)piperidine-2,6-dione], the greatest degradation seen (Dmax) reads like this: (read-out: VAV1 Dmax %) 97.7%; (read-out: VAV1 Dmax %, class) above 90%. The DC50 was 4.56 nM (read-out: VAV1 DC50) and at most 100 nM under setting [1].

As for `O=C1CCC(c2cccc(-c3ccc(-n4c(F)cccc4=O)nc3)c2Cl)C(=O)N1` (stereo not drawn) [Compound 343, 3-(2-chloro-3-(6-fluoro-2-oxo-2H-[1,2′-bipyridin]-5′-yl)phenyl)piperidine-2,6-dione], the Dmax was 86.3% (read-out: VAV1 Dmax %) and 60 to 90% (read-out: VAV1 Dmax %, class). The DC50 is, setting by setting: (read-out: VAV1 DC50) 161 nM; under setting [1], 100 to 1000 nM.

For the molecule `O=C1CCC(c2cccc(-c3ccc(Cc4nccc(C5CC5)n4)cc3)c2Cl)C(=O)N1` (stereo not drawn) [Compound 344, 3-(2-chloro-4′-((4-cyclopropylpyrimidin-2-yl)methyl)-[1,1′-biphenyl]-3-yl)piperidine-2,6-dione], the Dmax was 98% (read-out: VAV1 Dmax %) and above 90% (read-out: VAV1 Dmax %, class). Also, the DC50 is, setting by setting: (read-out: VAV1 DC50) 6.97 nM; under setting [1], at most 100 nM.

As for `O=C1CCC(c2cccc(-c3ccc(N4C(=O)OCCC45CC5)cc3)c2Cl)C(=O)N1` (stereo not drawn) [Compound 345, 3-(2-chloro-4′-(5-oxo-6-oxa-4-azaspiro[2.5]octan-4-yl)-[1,1′-biphenyl]-3-yl)piperidine-2,6-dione], the Dmax (read-out: VAV1 Dmax %) is 97.9% and the Dmax (read-out: VAV1 Dmax %, class) is above 90%. Moreover, the DC50 (read-out: VAV1 DC50) turned out to be 3.53 nM and the DC50 under setting [1] is at most 100 nM.

For the molecule `CN1CC(=O)N(c2ccc(-c3cccc(C4CCC(=O)NC4=O)c3Cl)cn2)CC12CC2` (stereo not drawn) [Compound 346, 3-(2-chloro-3-(6-(4-methyl-6-oxo-4,7-diazaspiro[2.5]octan-7-yl)pyridin-3-yl)phenyl)piperidine-2,6-dione], the Dmax runs as follows: (read-out: VAV1 Dmax %) 29.4%; (read-out: VAV1 Dmax %, class) below 60%. Further, the DC50 (read-out: VAV1 DC50) was at least 10000 nM and the DC50 under setting [1] is above 1000 nM.

For the molecule `O=C1CCC(c2cccc(-c3ccc(Cc4nccc(C(F)(F)F)n4)cc3)c2Cl)C(=O)N1` (stereo not drawn) [Compound 347, 3-(2-chloro-4′-((4-(trifluoromethyl)pyrimidin-2-yl)methyl)-[1,1′-biphenyl]-3-yl)piperidine-2,6-dione], the Dmax runs as follows: (read-out: VAV1 Dmax %) 96.4%; (read-out: VAV1 Dmax %, class) above 90%. Moreover, the DC50 (read-out: VAV1 DC50) was 17.1 nM and the DC50 under setting [1] was at most 100 nM.

`O=C1CCC(c2cccc(-c3ccc(Cc4nccc(C(F)F)n4)cc3)c2Cl)C(=O)N1` (stereo not drawn) [Compound 348, 3-(2-chloro-4′-((4-(difluoromethyl)pyrimidin-2-yl)methyl)-[1,1′-biphenyl]-3-yl)piperidine-2,6-dione]: the Dmax is 95.2% (read-out: VAV1 Dmax %) and above 90% (read-out: VAV1 Dmax %, class). The 50% degradation concentration (DC50) is 11.7 nM (read-out: VAV1 DC50) and at most 100 nM under setting [1].

Regarding `O=C1CCC(c2cccc(-c3ccc(N4C(=O)NCCC45CCC5)cc3)c2Cl)C(=O)N1` (stereo not drawn) [Compound 349, 3-(2-chloro-4′-(6-oxo-5,7-diazaspiro[3.5]nonan-5-yl)-[1,1′-biphenyl]-3-yl)piperidine-2,6-dione], the Dmax is 98.3% (read-out: VAV1 Dmax %) and above 90% (read-out: VAV1 Dmax %, class). Also, the DC50 runs as follows: (read-out: VAV1 DC50) 2.21 nM; under setting [1], at most 100 nM.

For the molecule `O=C1CCC(c2cccc(-c3ccc(N4C(=O)CCCC45CC5)c(F)c3)c2Cl)C(=O)N1` (stereo not drawn) [Compound 350, 3-(2-chloro-3′-fluoro-4′-(5-oxo-4-azaspiro[2.5]octan-4-yl)-[1,1′-biphenyl]-3-yl)piperidine-2,6-dione], the Dmax reads like this: (read-out: VAV1 Dmax %) 97.3%; (read-out: VAV1 Dmax %, class) above 90%. Moreover, the 50% degradation concentration (DC50) is, setting by setting: (read-out: VAV1 DC50) 7.18 nM; under setting [1], at most 100 nM.

Consider `O=C1CCC(c2cccc(-c3ccc(N4C(=O)OCCC45CC5)nc3)c2Cl)C(=O)N1` (stereo not drawn) [Compound 351, 3-(2-chloro-3-(6-(5-oxo-6-oxa-4-azaspiro[2.5]octan-4-yl)pyridin-3-yl)phenyl)piperidine-2,6-dione], for which the Dmax is 87% (read-out: VAV1 Dmax %) and 60 to 90% (read-out: VAV1 Dmax %, class). The DC50 was 82.5 nM (read-out: VAV1 DC50) and at most 100 nM under setting [1].

Take `CN1CC(=O)N(c2ccc(-c3cccc(C4CCC(=O)NC4=O)c3Cl)cc2)CC12CC2` (stereo not drawn) [Compound 352, 3-(2-chloro-4′-(4-methyl-6-oxo-4,7-diazaspiro[2.5]octan-7-yl)-[1,1′-biphenyl]-3-yl)piperidine-2,6-dione]: the Dmax is, setting by setting: (read-out: VAV1 Dmax %) 82.3%; (read-out: VAV1 Dmax %, class) 60 to 90%. Moreover, the DC50 by setting is: (read-out: VAV1 DC50) 65.3 nM; under setting [1], at most 100 nM.

Regarding `Cc1cccc(=O)n1-c1ccc(-c2cccc(C3CCC(=O)NC3=O)c2Cl)cn1` (stereo not drawn) [Compound 353, 3-(2-chloro-3-(6-methyl-2-oxo-2H-[1,2′-bipyridin]-5′-yl)phenyl)piperidine-2,6-dione], the Dmax was 90.7% (read-out: VAV1 Dmax %) and above 90% (read-out: VAV1 Dmax %, class). In addition, the DC50 by setting is: (read-out: VAV1 DC50) 62.1 nM; under setting [1], at most 100 nM.

`O=C1CCC(c2cccc(-c3ccc(Oc4ccccn4)cc3)c2Cl)C(=O)N1` (stereo not drawn) [Compound 354, 3-(2-chloro-4′-(pyridin-2-yloxy)-[1,1′-biphenyl]-3-yl)piperidine-2,6-dione]: the Dmax is, setting by setting: (read-out: VAV1 Dmax %) 97.4%; (read-out: VAV1 Dmax %, class) above 90%. Also, the DC50 by setting is: (read-out: VAV1 DC50) 13.3 nM; under setting [1], at most 100 nM.

In the case of `O=C1CCC(c2cccc(-c3ccc(N4C(=O)CCC45COC5)cc3)c2Cl)C(=O)N1` (stereo not drawn) [Compound 355, 3-(2-chloro-4′-(6-oxo-2-oxa-5-azaspiro[3.4]octan-5-yl)-[1,1′-biphenyl]-3-yl)piperidine-2,6-dione], the Dmax is 91.8% (read-out: VAV1 Dmax %) and above 90% (read-out: VAV1 Dmax %, class). Further, the DC50 is 15.9 nM (read-out: VAV1 DC50) and at most 100 nM under setting [1].

In the case of `O=C1CCC(c2cccc(-c3ccc(N4C(=O)OCC45CC5)nc3)c2Cl)C(=O)N1` (stereo not drawn) [Compound 356, 3-(2-chloro-3-(6-(5-oxo-6-oxa-4-azaspiro[2.4]heptan-4-yl)pyridin-3-yl)phenyl)piperidine-2,6-dione], the Dmax (read-out: VAV1 Dmax %) came out at 86% and the Dmax (read-out: VAV1 Dmax %, class) is 60 to 90%. Moreover, the DC50 was 71.4 nM (read-out: VAV1 DC50) and at most 100 nM under setting [1].

Take `O=C1CCC(c2cccc(-c3ccc(N4C(=O)OCC45CCC5)nc3)c2Cl)C(=O)N1` (stereo not drawn) [Compound 357, 3-(2-chloro-3-(6-(6-oxo-7-oxa-5-azaspiro[3.4]octan-5-yl)pyridin-3-yl)phenyl)piperidine-2,6-dione]: the Dmax (read-out: VAV1 Dmax %) was 90.8% and the Dmax (read-out: VAV1 Dmax %, class) is above 90%. Further, the DC50 runs as follows: (read-out: VAV1 DC50) 35.8 nM; under setting [1], at most 100 nM.

On to `O=C1CCC(c2cccc(-c3ccc(N4CCC5(COC5)C4=O)cc3)c2Cl)C(=O)N1` (stereo not drawn) [Compound 358, 3-(2-chloro-4′-(5-oxo-2-oxa-6-azaspiro[3.4]octan-6-yl)-[1,1′-biphenyl]-3-yl)piperidine-2,6-dione], for which the Dmax is 44.3% (read-out: VAV1 Dmax %) and below 60% (read-out: VAV1 Dmax %, class). For the same molecule, the DC50 (read-out: VAV1 DC50) is at least 10000 nM and the DC50 under setting [1] is above 1000 nM.
